Each structure is given as a SMILES string.

In the case of `COc1cc2ncnc(NC3=CC(=O)C(N4CCCCC4)=CC3=O)c2cc1OC`, the melting point (usually the temperature, or range, at which the solid turns liquid) is 226 to 227 °C.

On to `COc1cc2[nH]nc(C(=O)NN=Cc3ccc([N+](=O)[O-])o3)c2cc1OC`, for which the melting point is 334 °C.

In turn, `CNC(=O)/C(=N/OC)c1ccccc1COc1cccc(OC)n1` had a melting point of 81 to 82 °C.

As to `OCCc1cc(-c2ccc(Cl)cc2)no1`, the melting point is 65.5 to 67.5 °C.

`CC(Oc1cc(Oc2ccc(C(F)(F)F)cc2Cl)ccc1[N+](=O)[O-])C(=O)NCc1ccco1` (stereo unspecified) yielded a melting point of 128 to 130 °C.

For `CC(=O)c1cccc(C)c1NC(=O)CCBr`, the melting point lay in the range of 99 to 101 °C.

As to `O=C1CN(c2ccccc2)C(=O)N1CCBr`, the melting point is 146 to 147 °C.

Take `CN[C@H](Cc1ccc2ccccc2c1)C(=O)N1CCN(S(C)(=O)=O)C[C@H]1Cc1ccccc1`: the melting point lay within 165 to 168 °C.

In the case of `Cc1nc(-c2ccc(-c3cnc4[nH]c(=O)n(CCC5CCOCC5)c4n3)cc2)n[nH]1`, the melting point lay in the range of 290 to 292 °C.

Regarding `Nc1cc(CBr)nn1-c1c(Cl)cc(C(F)(F)F)cc1Cl`, the melting point turned out to be 220 °C.

`O=C(O)CCSCC(=O)c1cc2sc(=O)[nH]c2cc1Cl` yielded a melting point of 195 to 197 °C.

Compound `O=C(c1ccc(Cl)cc1)c1cc(-c2ccccc2)c(N2CCOCC2)s1` displayed a melting point of 187 to 188 °C.

`O=C(Cc1ccccc1C(=O)O)Nc1cccc(/C=C/c2nc(C3CCCCCCC3)cs2)c1` yielded a melting point of 180 to 182 °C.

The compound `O=C(O)C1CCc2cc(O)ccc21` (stereo unspecified) showed a melting point of 137 to 138 °C.

With `Cc1noc(NS(=O)(=O)c2ccc(NCc3ccccc3)cc2)c1C`, the melting point was in the range of 47 to 48 °C.

With `CSC(=Cc1cnn(-c2c(Cl)cc(C(F)(F)F)cc2Cl)n1)S(C)=O` (stereo unspecified), the melting point is 122 to 123 °C.

In turn, `CCCCOCCOc1ccc(-c2cc(/C=C/C(=O)O)c3c(c2)CCCN3C)cc1` came in with a melting point of 128 to 129 °C.

The compound `O=C(O)Cc1c(C(=O)O)c2cc(Oc3ccc(Cl)c(F)c3)ccc2n1-c1ccccc1` gave a melting point of 174 to 176 °C.

Turning to `CCOP(=O)(OCC)c1cccc(OCc2ccc3ccccc3c2)c1`, the melting point fell in the range of 55 to 57 °C.

As for `Cn1nc(C(=O)C(=O)c2ccccc2)ccc1=O`, the melting point is 89 to 92 °C.

`N#Cc1cccnc1N1CCN(CC(=O)Nc2ccccc2)CC1`: the melting point lay in the range of 110 to 112 °C.

For the compound `CCn1c(C(F)(F)F)n[nH]c1=O`, the melting point was 54 °C.

`CCCCc1c(C(=O)N(C)Cc2ccc3c(Br)c(OCC(Cc4ccccc4)C(=O)O)ccc3c2)oc2ccccc12` (stereo unspecified) gave a melting point of 64 to 68 °C.

As for `COc1cccc(NN)n1`, the melting point is 30 to 40 °C.

`COCCOc1ccc2c(c1)OCC21C(=O)Nc2ccccc21` (stereo unspecified) had a melting point of 172 to 174 °C.

Compound `CCOC(=O)C(C(=O)c1ccc(C#N)cc1)C1c2ccccc2Oc2ccccc21` (stereo unspecified) registered a melting point of 141 °C.

The compound `Nc1c(F)c(N2CC(n3cncn3)C2)c(F)c2c1c(=O)c(C(=O)O)cn2C1CC1` registered a melting point of 293 to 295 °C.

On to `CS(=O)(=O)Nc1cc(C(c2cc(F)ccc2F)S(=O)(=O)c2ccc(F)cc2)c(Cl)cn1` (stereo unspecified), for which the melting point is 178 to 179 °C.

On to `CCOC(=O)Cc1c(C)n(Cc2ccccc2)c2ccc(-c3ccccc3)cc12`, for which the melting point fell in the range of 116 to 119 °C.

Compound `COc1ccc2c(ccc3cc(OC)c(OC)c(OC)c32)c1` returned a melting point of 142 to 144 °C.

Regarding `CC(C)(C)C1=NN(c2ccc(C(=O)O)cc2)C(c2ccccc2Cl)C1` (stereo unspecified), the melting point was found to be 229 °C.

For the compound `Cc1ccc([N+](=O)[O-])c(C)c1[N+](=O)[O-]`, the melting point lay in the range of 81 to 83 °C.

The compound `CCC(C)N(C(=O)c1cc(-c2ccccc2Cl)nc2ccccc12)C(C)CC` (stereo unspecified) registered a melting point of 120 °C.

For the compound `CC(C)CC(CO)NC(=O)OCC1c2ccccc2-c2ccccc21` (stereo unspecified), the melting point fell in the range of 131 to 133 °C.

For `CC(C)(C)OC(=O)N=C(c1ccc(C(=O)Nc2ccc(C(=O)NCCC(=O)OCc3ccccc3)cc2)cc1)N(C(=O)OC(C)(C)C)C(=O)OC(C)(C)C`, the melting point was 164 to 165 °C.

With `CCOC(=O)c1c(C)nn(-c2cccc(C)c2)c1C`, the melting point lay within 46.5 to 47.5 °C.

For the compound `CC(C)(C)OC(=O)Nc1nc(C(=CC(C)(C)C(=O)OCc2ccccc2)C(=O)O)cs1`, the melting point was in the range of 175 to 177 °C.

On to `NC(=O)CN1C(=O)CC2Cc3c(Cl)cccc3C21` (stereo unspecified), for which the melting point was 186 to 188 °C.

`Cc1cc(I)ccc1N=C=S`: the melting point was 51 to 53 °C.

`Cc1oncc1C(=O)c1ccc(Cl)cc1` registered a melting point of 65 to 66 °C.

Consider `CC(NC(=O)CBr)c1ccccc1` (stereo unspecified), for which the melting point was 60 to 61 °C.

Turning to `CCCCOC(=O)c1ccc(OC(=O)C(=O)Oc2ccc(C(=O)OCCCC)cc2)cc1`, the melting point lay in the range of 100 to 102 °C.

Consider `CCc1nc(Cl)c2sccc2n1`, for which the melting point was 46 to 48 °C.

Compound `COc1ccc(C2=NN(CCCCCN3C(=O)c4ccccc4C3=O)C(=O)[C@H]3CC=CC[C@@H]23)cc1OC` (relative stereo) displayed a melting point of 126 to 129 °C.

Consider `CC(NC(=O)OCc1ccccc1)P(C)(=O)OCc1ccccc1` (stereo unspecified), for which the melting point fell in the range of 108 to 110 °C.

`O=C(c1ccc2nonc2c1)N1C2CCC1CC(F)(F)C2` yielded a melting point of 165 to 166 °C.

Compound `Cn1cc(-c2ccccc2)c(=S)c(-c2cccc(C(F)(F)F)c2)c1` came in with a melting point of 210 °C.

On to `Cn1c2ccccc2c2ccc3ccccc3c21`, for which the melting point was 167 to 169 °C.

Regarding `CCCC(=O)c1cnc2ccsc2c1Cl`, the melting point was in the range of 78 to 80 °C.

In the case of `N#Cc1cn(C2CC2)c2c(F)c(F)c(F)cc2c1=O`, the melting point is 213 to 215 °C.

With `FC(F)(F)c1cccc(C2=CCNc3ccnn32)c1`, the melting point was 61 to 64 °C.

In turn, `Cc1cc(F)ccc1-c1nc(NCCNC(=O)Nc2ccccc2)nc2c1ccc(=O)n2-c1c(F)cccc1F` came in with a melting point of 142 to 148 °C.

`O=C1CCC(=C2CCC(C3CCCCC3)CC2)CC1` (stereo unspecified) displayed a melting point of 81 to 81.5 °C.

The compound `CC(C)c1cccc2c1OC(C(F)(F)F)C(C(=O)O)=C2` (stereo unspecified) came in with a melting point of 210 to 212 °C.

For `Oc1c(C23CC4CC(CC(C4)C2)C3)ccc2ccccc12`, the melting point is 209 to 210 °C.

Compound `Cc1cccc(N2CCN(CCC3CN(C)C(=O)O3)CC2)c1` (stereo unspecified) had a melting point of 72 to 74 °C.

The compound `COc1ccc2c(c1OC)C(=Cc1ccccc1)c1ccccc1-2` showed a melting point of 210 °C.

Regarding `CCCC1C(C(=O)OCC)C(O)(C(F)(F)F)NC(O)(C(F)(F)F)C1C(=O)OCC` (stereo unspecified), the melting point fell in the range of 140 to 142 °C.

On to `O=C(O)C(=NOCc1ccccc1)c1csc2ccccc12`, for which the melting point was 120 to 121 °C.

Compound `CC(C)(C)OC(=O)C(=NOC(C)(C)C(=O)OCC[Si](C)(C)C)c1csc(N)n1` returned a melting point of 83 °C.

With `C=C(CC)C(=O)c1ccc(OCC(=O)NCCCCF)c(Cl)c1Cl`, the melting point fell in the range of 94 to 96 °C.

The compound `Nc1nc(-c2ccccc2Cl)nc(N2CCCCC2)n1` showed a melting point of 184 to 186 °C.

Consider `CS(=O)(=O)C(C#N)=Cc1ccc2[nH]ccc2c1`, for which the melting point lay in the range of 184 to 185 °C.

`O=C(O)Cc1c[nH]c2nc(Nc3ccccc3)nn2c1=O`: the melting point was in the range of 279 to 281 °C.

Take `O=C(O)c1ccsc1C(F)F`: the melting point was 127 to 128 °C.

On to `Cc1cccc(C)c1NC(=O)CN1CCN(CCC(c2ccc(F)cc2)c2ccc(F)cc2)C(C(N)=O)C1` (stereo unspecified), for which the melting point came out at 143 °C.

For `CCOC(=O)Cn1nc(-c2ccc(C)cc2)c(C(N)=O)c1N`, the melting point was determined as 179 °C.

`O=[N+]([O-])c1ccc(OCCCl)cc1` registered a melting point of 60 °C.

With `CNS(=O)(=O)CCc1ccc(N)cc1`, the melting point was in the range of 101 to 105 °C.

For `CC(C)Nc1cccnc1N1CCN(C(=O)c2ccc(C(=O)NC(CO)CO)cn2)CC1`, the melting point was in the range of 90 to 93 °C.

Regarding `CCCCCCCCCCCCCCCCCCNC(=O)c1ccccc1N`, the melting point was in the range of 89 to 90 °C.

The compound `CC(C)n1nc(CO)cc1OCc1ccc2ccccc2n1` displayed a melting point of 118 to 119 °C.

In turn, `COc1ccccc1C1(O)C(=O)Nc2cc(Cl)c(Cl)cc21` (stereo unspecified) gave a melting point of 245 to 246 °C.

In turn, `CC(C)(C)OC(=O)NC[C@H]1CN(c2ccc3c(c2)CCCc2cnoc2-3)C(=O)O1` yielded a melting point of 180 to 184 °C.

As to `COC(=O)C(=NO)c1cc(Cl)nc(NC=O)n1`, the melting point fell in the range of 110 to 112 °C.

The compound `CCCc1c(OCc2ccc(Cc3nnn[nH]3)cc2)ccc(C(C)=O)c1O` yielded a melting point of 184 to 187 °C.

`CCCCCCCCCCCCCCc1ccc(S(=O)(=O)Nc2nncs2)cc1` returned a melting point of 116 to 117 °C.

`COC(=O)c1c(C)nc(C)c(C(=O)Cl)c1-c1ccccc1[N+](=O)[O-]` registered a melting point of 96 to 98 °C.

Turning to `O=C(c1cc2c(cc1Cl)OCO2)N1CCOCC1`, the melting point was found to be 155 °C.

`CCOC(=O)c1c(CCn2cncn2)nc2sc3c(c2c1-c1ccc(OC)c(OC)c1)CCN(C(=O)c1ccc(Cl)cc1)C3`: the melting point fell in the range of 195 to 197 °C.

`CCOCc1nc2c(cc(C)n3nnnc23)n1CC(C)C` returned a melting point of 158 to 160 °C.

`COC[C@@H](C)n1cc(Cl)nc(N2CCc3cc(Cl)cc(Cl)c32)c1=O`: the melting point was 93 to 95 °C.

`COc1cccc2oc(-c3ccc(F)cc3)cc(=O)c12` showed a melting point of 178 °C.

`CC(=O)OCC1OC(c2ccc(Cl)c(Cc3ccc(-c4ccc(F)nc4)s3)c2)C(OC(C)=O)C(OC(C)=O)C1OC(C)=O` (stereo unspecified): the melting point was 161 to 162 °C.

In the case of `CC(C)(C)c1cc(-n2nc3ccc(Cl)cc3n2)c(O)c(C(C)(C)C)c1`, the melting point is 151 to 154 °C.

For `Cc1cc(-c2nc3cccnn3c2-c2ccnc(NC(=O)c3ccc(Cl)cc3)c2)ccc1F`, the melting point was in the range of 207 to 209 °C.

For the compound `O=C1NC(=O)c2c1c(-c1ccccc1)cc1[nH]c3ccccc3c21`, the melting point lay in the range of 262 to 264 °C.

As for `CCc1n[nH]c(CC)c1Oc1cccc(C#N)c1`, the melting point lay within 81 to 84 °C.

Take `Cc1cccc(CC(=O)c2ccnc(-c3ccc(C=O)cc3)c2)n1`: the melting point was 118 °C.

In the case of `N#Cc1nn(-c2c(Cl)cc(C(F)(F)F)cc2Cl)cc1C#CBr`, the melting point is 166 to 168 °C.

Take `CCCC(=O)c1cccc(NC(=O)C=C(C)Cl)c1`: the melting point was found to be 106 °C.

Values taken from a melting point compilation (Tetko et al.; mined from patent text by program, amines drawn as free bases though some values may be those of a salt).
